The values below come from patent publication US20060058320A1, “[1,2,4] Triazolo[1,5-c]pyrimidine derivatives” (KYOWA HAKKO KOGYO CO., LTD., priority 2002, published 2006).

The subject of the test is CGS 21680-induced catalepsy. Put plainly: Activity on CGS 21680-induced catalepsy. Format: in vivo, mice. Particulars: for inhibition in vivo at 10 mg/kg: Mus musculus, po, read-out: Remission ratio (%); for Total score: total catalepsy score of 10 mice (maximum 50 points; 40 points or less = positive), one hour after administration. On the procedure:
Parkinson's disease is a motor disorder based on degeneration and cell death of the nigrostriatal dopaminergic neurons. When CGS 21680 (adenosine A2A receptor agonist) is administered into the intracerebral ventricle, the inhibitory synaptic transmission of GABA in the medium sized spiny neurons in the corpus striatum is inhibited directly via the adenosine A2A receptor [Journal of Neuroscience, vol. 16, p. 605 (1996)]. Accordingly, it is concidered that the adenosine A2A receptor agonists positively regulate the output of the GABAergic neurons from the corpus striatum to the globus pallidus lateralis, and, as a result, catalepsy is induced by the administration of CGS 21680.
The test was carried out using ten 5-week age male ddY mice (22-25 g in body weight, Japan SLC) per group. CGS 21680 (produced by RBI Co) was dissolved in physiological saline (produced by Otsuka Pharmaceutical Co., Ltd.), and 10 μg/20 μL of the solution was injected into mouse intracerebral ventricle. Each test compound was used by suspending it in distilled water containing 0.3% of polyoxylene (20) sorbitan monooleate (referred to as “Tween 80” hereinafter) (produced by Otsuka Pharmaceutical Co., Ltd.). The suspension containing each test compound or a solution containing no test Compound (distilled water containing 0.3% of Tween 80; used as a control) was orally administered (0.1 mL per 10 g of mouse body weight) 30 minutes before the injection of CGS 21680 into the intracerebral ventricle. One hour after the administration of the each test compound, only forelimbs or only hindlimbs of each mouse were laid on a vertically arranged stand made of acryl and having a size of 4.5 cm in height and 1.0 cm in width to measure catalepsy symptoms. All of the test compounds were administered orally in a dose of 10 mg/kg.
The criteria of the catalepsy score are shown below.
The effect was decided by a total catalepsy score of 10 mice in one group (the maximum score: 50 points). When the total score was 40 points or less, the activity of the compounds was decided positive. The number of the animals showing remission of catalepsy was expressed by the number of cases showing a catalepsy score of 4 points or less in 10 cases. The catalepsy remission ratio was expressed as the percentage of the total score in the test compound-administered group to the total score in the control group.

Setting [1] is: from total score of test group and control group, 10 mg/kg orally.

Molecules are shown by their SMILES. Structures can show the parent of a compound that is named as a salt. Where two headings read alike, the source gives them in different places.

Turning to `Nc1nc(CO)cc2nc(-c3ccco3)nn12` [Compound 22, 5-Amino-2-(2-furyl)-7-hydroxymethyl[1,2,4]triazolo[1,5-c]-pyrimidine], the inhibition in vivo at 10 mg/kg under setting [1] was 84%. In addition, where the note is “10 mg/kg orally”, the Total score is recorded as 8.
For `CCOC1(c2cc3nc(-c4ccco4)nn3c(N)n2)CC1` [Compound 26, 5-Amino-7-(1-ethoxycyclopropyl)-2-(2-furyl)[1,2,4]triazolo [1,5-c]pyrimidine], under setting [1], the inhibition in vivo at 10 mg/kg came to 82%. Where the note is “10 mg/kg orally”, the Total score is recorded as 9.
Consider `CC(C)(O)c1ccccc1OCc1cc2nc(-c3ccco3)nn2c(N)n1` [Compound 29, 5-Amino-7-[2-(1-hydroxy-1-methylethyl)phenoxymethyl]-2-(2-furyl)[1,2,4]triazolo[1,5-c]pyrimidine], for which the inhibition in vivo at 10 mg/kg under setting [1] is 88%. The compound further registered a Total score (10 mg/kg orally) of 6.
In the case of `COc1ccc(CN(C)Cc2cc3nc(-c4ccco4)nn3c(N)n2)cc1OC` [Compound 35, 5-Amino-7-[(N-methyl-3,4-dimethoxybenzylamino)methyl]-2-(2-furyl)[1,2,4]triazolo[1,5-c]pyrimidine monohydrochloride], the inhibition in vivo at 10 mg/kg is 90%. Besides, the Total score (10 mg/kg orally) is 5.
In the case of `Nc1nc(-c2ccccn2)cc2nc(-c3ccco3)nn12` [Compound 52, 5-Amino-2-(2-furyl)-7-(2-pyridyl)[1,2,4]triazolo[1,5-c]-pyrimidine], under setting [1], the inhibition in vivo at 10 mg/kg was 84%. This compound also came in with a Total score (10 mg/kg orally) of 8.
In the case of `Nc1nc(-c2cccnc2)cc2nc(-c3ccco3)nn12` [Compound 53, 5-Amino-2-(2-furyl)-7-(3-pyridyl) [1,2,4]triazolo[1,5-c]-pyrimidine], the inhibition in vivo at 10 mg/kg under setting [1] came to 84%. The compound further registered a Total score (10 mg/kg orally) of 8.
As to `Nc1nc(-c2cc[nH]n2)cc2nc(-c3ccco3)nn12` [Compound 60, 5-Amino-2-(2-furyl)-7-(1H-pyrazol-3-yl)[1,2,4]triazolo[1,5-c]pyrimidine], the inhibition in vivo at 10 mg/kg under setting [1] is 98%. In addition, under “10 mg/kg orally”, the Total score was found to be 1.
In the same order, the values of `Nc1nc(-c2ccc(CO)cn2)cc2nc(-c3ccco3)nn12` [Compound 62, 5-Amino-2-(2-furyl)-7-(3-hydroxymethylpyridin-6-yl)[1,2,4]-triazolo[1,5-c]pyrimidine] are 80% and 10.
Regarding `CC(C)(O)c1ccc(-c2cc3nc(-c4ccco4)nn3c(N)n2)cc1` [Compound 63, 5-Amino-2-(2-furyl)-7-[4-(1-hydroxy-1-methylethyl)phenyl]-[1,2,4]triazolo[1,5-c]pyrimidine], under setting [1], the inhibition in vivo at 10 mg/kg is 98%. Moreover, where the note is “10 mg/kg orally”, the Total score came out at 1.
Regarding `Nc1nc(C2=CCN(Cc3csnn3)CC2)cc2nc(-c3ccco3)nn12` [Compound 72, 5-Amino-2-(2-furyl)-7-[1-(1,2,3-thiadiazol-4-yl)methyl-1,2,3,6-tetrahydropyridin-4-yl][1,2,4]triazolo[1,5-c]-pyrimidine], the inhibition in vivo at 10 mg/kg is 100%. Under “10 mg/kg orally”, this compound showed a Total score of 0.
With `Nc1nc(C2=CCN(CCO)CC2)cc2nc(-c3ccco3)nn12` [Compound 75, 5-Amino-2-(2-furyl)-7-[1-(2-hydroxyethyl)-1,2,3,6-tetra-hydropyridin-4-yl][1,2,4]triazolo[1,5-c]pyrimidine], the inhibition in vivo at 10 mg/kg was determined as 96%. In addition, the Total score (10 mg/kg orally) is given as 2.
For `COc1ccc(CNC(=O)c2cc3nc(-c4ccco4)nn3c(N)n2)cc1OC` [Compound 80, 5-Amino-2-(2-furyl)[1,2,4]triazolo[1,5-c]pyrimidine-7-carboxylic acid (3,4-dimethoxybenzyl)amide], under setting [1], the inhibition in vivo at 10 mg/kg amounted to 88%. The Total score (10 mg/kg orally) amounted to 6.
Consider `COc1ccc(CN(C)C(=O)c2cc3nc(-c4ccco4)nn3c(N)n2)cc1OC` [Compound 81, 5-Amino-2-(2-furyl)[1,2,4]triazolo[1,5-c]pyrimidine-7-carboxylic acid [N-(3,4-dimethoxybenzyl)-N-methyl]amide], for which, under setting [1], the inhibition in vivo at 10 mg/kg was 96%. This compound showed a Total score (10 mg/kg orally) of 2.
For the compound `Nc1nc(C(=O)NCCc2ccccn2)cc2nc(-c3ccco3)nn12` [Compound 84, 5-Amino-2-(2-furyl) [1,2,4]triazolo[1,5-c]pyrimidine-7-carboxylic acid [2-(2-pyridyl)ethyl]amide], the inhibition in vivo at 10 mg/kg under setting [1] stood at 92%. The compound also gave a Total score (10 mg/kg orally) of 4.
In the same order, the values of `COCCNC(=O)c1cc2nc(-c3ccco3)nn2c(N)n1` [Compound 86, 5-Amino-2-(2-furyl)[1,2,4]triazolo[1,5-c]pyrimidine-7-carboxylic acid (2-methoxyethyl)amide] are 100% and 0.
Consider `COCCN(C)C(=O)c1cc2nc(-c3ccco3)nn2c(N)n1` [Compound 87, 5-Amino-2-(2-furyl)[1,2,4]triazolo[1,5-c]pyrimidine-7-carboxylic acid [N-(2-methoxyethyl)-N-methyl]amide], for which, under setting [1], the inhibition in vivo at 10 mg/kg was 82%. Under “10 mg/kg orally”, the Total score amounted to 9.
In the same order, the values of `Nc1nc(C(=O)NCc2ccccc2)cc2nc(-c3ccco3)nn12` [Compound 91, 5-Amino-2-(2-furyl)[1,2,4]triazolo[1,5-c]pyrimidine-7-carboxylic acid benzylamide] are 94% and 3.
Consider `Nc1nc(C(=O)NCCCN2CCCC2=O)cc2nc(-c3ccco3)nn12` [Compound 92], for which, under setting [1], the inhibition in vivo at 10 mg/kg is 82%. Besides, the Total score (10 mg/kg orally) is reported as 9.
`CC(C)N(Cc1ccccc1)C(=O)c1cc2nc(-c3ccco3)nn2c(N)n1` [Compound 100, 5-Amino-2-(2-furyl)[1,2,4]triazolo[1,5-c]pyrimidine-7-carboxylic acid (N-benzyl-N-isopropyl)amide]: for the setting “cases with catalepsy score of 4 points or less in 10 cases, 10 mg/kg orally”, the “Number of animals showing remission” value was found to be 8. Moreover, the “Remission ratio (%)” value under setting [1] turned out to be 64%. The same compound showed a Total score (10 mg/kg orally) of 15.
Turning to `CCN(Cc1ccncc1)C(=O)c1cc2nc(-c3ccco3)nn2c(N)n1` [Compound 102, 5-Amino-2-(2-furyl)[1,2,4]triazolo[1,5-c]pyrimidine-7-carboxylic acid [N-ethyl-N-(4-pyridylmethyl)]amide], the inhibition in vivo at 10 mg/kg under setting [1] was determined as 92%. Further, the Total score (10 mg/kg orally) is on record as 4.
In the case of `CN(Cc1cccnc1)C(=O)c1cc2nc(-c3ccco3)nn2c(N)n1` [Compound 105, 5-Amino-2-(2-furyl)[1,2,4]triazolo[1,5-c]pyrimidine-7-carboxylic acid [N-methyl-N-(3-pyridylmethyl)]amide], under setting [1], the inhibition in vivo at 10 mg/kg turned out to be 82%. For the same compound, the Total score (10 mg/kg orally) is 9.
On to `CN(C(=O)c1cc2nc(-c3ccco3)nn2c(N)n1)c1ccc(Cl)nc1` [Compound 118, 5-Amino-2-(2-furyl)[1,2,4]triazolo[1,5-c]pyrimidine-7-carboxylic acid [N-(6-chloropyridin-3-yl)-N-methyl]amide], for which the inhibition in vivo at 10 mg/kg under setting [1] worked out at 94%. Moreover, the Total score (10 mg/kg orally) was found to be 3.
In the same order, the values of `CN(Cc1ccc(F)cc1)C(=O)c1cc2nc(-c3ccco3)nn2c(N)n1` [Compound 121, 5-Amino-2-(2-furyl)[1,2,4]triazolo[1,5-c]pyrimidine-7-carboxylic acid [N-(4-fluorobenzyl)-N-methyl]amide monohydrochloride] are 72% and 14.
Regarding `CCN(Cc1cccnc1Cl)C(=O)c1cc2nc(-c3ccco3)nn2c(N)n1` [Compound 129, 5-Amino-2-(2-furyl)[1,2,4]triazolo[1,5-c]pyrimidine-7-carboxylic acid [N-ethyl-N-(2-chloropyridin-3-ylmethyl)]-amide], the inhibition in vivo at 10 mg/kg under setting [1] is 90%. The Total score (10 mg/kg orally) is 5.
As to `Cc1ccc(CN(C)C(=O)c2cc3nc(-c4ccco4)nn3c(N)n2)cn1` [Compound 130, 5-Amino-2-(2-furyl)[1,2,4]triazolo[1,5-c]pyrimidine-7-carboxylic acid [N-methyl-N-(6-methylpyridin-3-ylmethyl)]-amide], under setting [1], the inhibition in vivo at 10 mg/kg is 70%. For the same compound, the Total score (10 mg/kg orally) came to 15.
Consider `CN(CCc1cccnc1)C(=O)c1cc2nc(-c3ccco3)nn2c(N)n1` [Compound 138, 5-Amino-2-(2-furyl)[1,2,4]triazolo[1,5-c]pyrimidine-7-carboxylic acid {N-methyl-N-[2-(3-pyridyl)ethyl]}amide], for which the inhibition in vivo at 10 mg/kg under setting [1] was determined as 78%. Where the note is “10 mg/kg orally”, this compound registered a Total score of 11.
